Results from ChEMBL document CHEMBL4715814, “Design, synthesis and biological activity evaluation of novel 4-subtituted 2-naphthamide derivatives as AcrB inhibitors” (2018).
The source made the active and inactive calls. The rule behind the calls is not given here. Peptide text beside a SMILES is read from it. * marks the point of attachment. βNA = c1ccc2cc(N*)ccc2c1

Assays:
[1] = system: Escherichia coli; assay: Antibacterial activity against Wild type Escherichia coli BW25113 assessed as inhibition of AcrB efflux pump by mesuring the glucose-induced nile red efflux at 200 uM preincubated with CCCP for 15 mins followed by compound addition after 15 mins nile red added and incubated for 3 hrs in shaker by fluorimetric analysis; format: functional, organism-based; details: time 195.0 min
[2] = system: Cell membrane; assay: Induction of outer membrane permeabilization in wild type Escherichia coli BW25113 assessed as increase in nitrocefin hydrolysis at 512 ug/ml measured for 30 mins in presence of CCCP by spectrophotometry analysis; format: subcellular; details: dose 512.0 µg/ml
[3] = system: Escherichia coli; assay: Potentiation of TPP-induced antibacterial activity against AcrB deficient Escherichia coli BW25113 assessed as TPP MIC at 128 ug/ml incubated for 18 hrs under aerobic condition by checkerboard titration assay (reference value: 256 ug/ml); format: functional; details: dose 128 µg/ml
[4] = system: Escherichia coli; assay: Potentiation of chloramphenicol-induced antibacterial activity against AcrB deficient Escherichia coli BW25113 assessed as chloramphenicol MIC at 128 ug/ml incubated for 18 hrs under aerobic condition by checkerboard titration assay (reference value: 2 ug/ml); format: functional; details: dose 128 µg/ml
[5] = system: Escherichia coli; assay: Potentiation of chloramphenicol-induced antibacterial activity against AcrB deficient Escherichia coli BW25113 assessed as chloramphenicol MIC at 256 ug/ml incubated for 18 hrs under aerobic condition by checkerboard titration assay (reference value: 2 ug/ml); format: functional; details: dose 256 µg/ml
[6] = system: Escherichia coli; assay: Potentiation of TPP-induced antibacterial activity against AcrB deficient Escherichia coli BW25113 assessed as TPP MIC at 256 ug/ml incubated for 18 hrs under aerobic condition by checkerboard titration assay (reference value: 256 ug/ml); format: functional; details: dose 256 µg/ml
[7] = system: Escherichia coli; assay: Potentiation of erythromycin-induced antibacterial activity against AcrB deficient Escherichia coli BW25113 assessed as erythromycin MIC at 128 ug/ml incubated for 18 hrs under aerobic condition by checkerboard titration assay (reference value: 32 ug/ml); format: functional; details: dose 128 µg/ml
[8] = system: Escherichia coli; assay: Potentiation of erythromycin-induced antibacterial activity against AcrB deficient Escherichia coli BW25113 assessed as erythromycin MIC at 256 ug/ml incubated for 18 hrs under aerobic condition by checkerboard titration assay (reference value: 32 ug/ml); format: functional; details: dose 256 µg/ml
[9] = system: Escherichia coli; assay: Potentiation of TPP-induced antibacterial activity against wild type Escherichia coli BW25113 assessed as TPP MIC at 256 ug/ml incubated for 18 hrs under aerobic condition by checkerboard titration assay (reference value: 1024 ug/ml); format: functional; details: dose 256 µg/ml
[10] = system: Escherichia coli; assay: Potentiation of TPP-induced antibacterial activity against wild type Escherichia coli BW25113 assessed as TPP MIC at 128 ug/ml incubated for 18 hrs under aerobic condition by checkerboard titration assay (reference value: 1024 ug/ml); format: functional; details: dose 128 µg/ml
[11] = system: Escherichia coli; assay: Potentiation of chloramphenicol-induced antibacterial activity against wild type Escherichia coli BW25113 assessed as chloramphenicol MIC at 256 ug/ml incubated for 18 hrs under aerobic condition by checkerboard titration assay (reference value: 16 ug/ml); format: functional; details: dose 256 µg/ml
[12] = system: Escherichia coli; assay: Potentiation of chloramphenicol-induced antibacterial activity against wild type Escherichia coli BW25113 assessed as chloramphenicol MIC at 128 ug/ml incubated for 18 hrs under aerobic condition by checkerboard titration assay (reference value: 16 ug/ml); format: functional; details: dose 128 µg/ml
[13] = system: Escherichia coli; assay: Potentiation of rifampicin-induced antibacterial activity against wild type Escherichia coli BW25113 assessed as rifampicin MIC at 128 ug/ml incubated for 18 hrs under aerobic condition by checkerboard titration assay (reference value: 16 ug/ml); format: functional; details: dose 128 µg/ml
[14] = system: Escherichia coli; assay: Potentiation of rifampicin-induced antibacterial activity against wild type Escherichia coli BW25113 assessed as rifampicin MIC at 256 ug/ml incubated for 18 hrs under aerobic condition by checkerboard titration assay (reference value: 16 ug/ml); format: functional; details: dose 256 µg/ml
[15] = system: Cell membrane; assay: Disruption of inner membrane potential in wild type Escherichia coli BW25113 at 512 ug/ml preincubated for 10 mins followed by glucose stimulation and CCCP addition by DiOC2 probe based fluorimetric analysis; format: subcellular; details: dose 512.0 µg/ml
[16] = system: Escherichia coli; assay: Potentiation of erythromycin-induced antibacterial activity against wild type Escherichia coli BW25113 assessed as erythromycin MIC at 256 ug/ml incubated for 18 hrs under aerobic condition by checkerboard titration assay (reference value: 128 ug/ml); format: functional; details: dose 256 µg/ml
[17] = system: Escherichia coli; assay: Potentiation of erythromycin-induced antibacterial activity against wild type Escherichia coli BW25113 assessed as erythromycin MIC at 128 ug/ml incubated for 18 hrs under aerobic condition by checkerboard titration assay (reference value: 128 ug/ml); format: functional; details: dose 128 µg/ml
[18] = system: Escherichia coli; assay: Antibacterial activity against AcrB deficient Escherichia coli BW25113 assessed as inhibition of bacterial growth at 256 ug/ml after 18 hrs by microtitre broth dilution assay; format: functional, organism-based; details: dose 256.0 µg/ml
[19] = system: Escherichia coli; assay: Antibacterial activity against wild type Escherichia coli BW25113 assessed as inhibition of bacterial growth at 256 ug/ml after 18 hrs by microtitre broth dilution assay; format: functional, organism-based; details: dose 256.0 µg/ml
[20] = system: Escherichia coli; assay: Potentiation of erythromycin-induced antibacterial activity against wild type Escherichia coli BW25113 assessed as fold reduction in erythromycin MIC at 128 ug/ml incubated for 18 hrs under aerobic condition by checkerboard titration assay relative to erythromycin MIC alone; format: functional; details: dose 128 µg/ml
[21] = system: Escherichia coli; assay: Potentiation of erythromycin-induced antibacterial activity against Escherichia coli BW25113 assessed as erythromycin MIC at 32 ug/ml incubated for 18 hrs under aerobic condition in presence of EDTA by checkerboard titration assay; format: functional, organism-based; details: dose 32.0 µg/ml
[22] = system: Escherichia coli; assay: Potency index, ratio of A3 MIC to compound MIC for potentiation of erythromycin-induced antibacterial activity against Escherichia coli BW25113; format: functional
[23] = system: Escherichia coli; assay: Potentiation of TPP-induced antibacterial activity against AcrB deficient Escherichia coli BW25113 assessed as TPP MIC at 200 ug/ml incubated for 18 hrs under aerobic condition by checkerboard titration assay (reference value: 256 ug/ml); format: functional; details: dose 200 µg/ml
[24] = system: Escherichia coli; assay: Potentiation of chloramphenicol-induced antibacterial activity against AcrB deficient Escherichia coli BW25113 assessed as chloramphenicol MIC at 200 ug/ml incubated for 18 hrs under aerobic condition by checkerboard titration assay (reference value: 2 ug/ml); format: functional; details: dose 200 µg/ml
[25] = system: Escherichia coli; assay: Potentiation of erythromycin-induced antibacterial activity against AcrB deficient Escherichia coli BW25113 assessed as erythromycin MIC at 200 ug/ml incubated for 18 hrs under aerobic condition by checkerboard titration assay (reference value: 32 ug/ml); format: functional; details: dose 200 µg/ml
[26] = system: Escherichia coli; assay: Potentiation of rifampicin-induced antibacterial activity against wild type Escherichia coli BW25113 assessed as rifampicin MIC at 200 ug/ml incubated for 18 hrs under aerobic condition by checkerboard titration assay (reference value: 16 ug/ml); format: functional; details: dose 200 µg/ml
[27] = system: Escherichia coli; assay: Potentiation of TPP-induced antibacterial activity against wild type Escherichia coli BW25113 assessed as TPP MIC at 200 ug/ml incubated for 18 hrs under aerobic condition by checkerboard titration assay (reference value: 1024 ug/ml); format: functional; details: dose 200 µg/ml
[28] = system: Escherichia coli; assay: Potentiation of chloramphenicol-induced antibacterial activity against wild type Escherichia coli BW25113 assessed as chloramphenicol MIC at 200 ug/ml incubated for 18 hrs under aerobic condition by checkerboard titration assay (reference value: 16 ug/ml); format: functional; details: dose 200 µg/ml
[29] = system: Escherichia coli; assay: Potentiation of erythromycin-induced antibacterial activity against wild type Escherichia coli BW25113 assessed as erythromycin MIC at 200 ug/ml incubated for 18 hrs under aerobic condition by checkerboard titration assay (reference value: 128 ug/ml); format: functional; details: dose 200 µg/ml

CC(C)NCCOc1cc(C(N)=O)cc2ccccc12
Activity [1]: Active
Activity [2]: inactive
MIC [3]: 256 µg/mL
MIC [4]: 2 µg/mL
MIC [5]: 2 µg/mL
MIC [6]: 256 µg/mL
MIC [7]: 32 µg/mL
MIC [8]: 32 µg/mL
MIC [9]: 1020 µg/mL
MIC [10]: 1020 µg/mL
MIC [11]: 16 µg/mL
MIC [12]: 16 µg/mL
MIC [13]: 16 µg/mL
MIC [14]: 16 µg/mL
Activity [15]: inactive
MIC [16]: 16 µg/mL
MIC [17]: 16 µg/mL
Activity [18]: Active
Activity [19]: inactive
fold change (FC) [20]: 8
Activity [21]: Active
Ratio [22]: 16

N=C(N)NCCC[C@H](NC(=O)[C@@H](N)Cc1ccccc1)C(=O)Nc1ccc2ccccc2c1 [PABETAN] (H-Phe-Arg-βNA)
MIC [23]: 256 µg/mL
MIC [24]: 2 µg/mL
MIC [25]: 16 µg/mL
MIC [26]: 2 µg/mL
MIC [27]: 256 µg/mL
MIC [28]: 2 µg/mL
MIC [29]: 16 µg/mL
